# Tests used:
# Format in all cases: in vivo
# male NMRI mice = assay: Phencyclidine (PCP)-induced hyperlocomotion in mice; conditions: Mus musculus, PO, PCP 5 mg/kg s.c., read-out: ED50 PCP (inhibition of PCP-induced hyperlocomotion)
# Procedure: On the day of experiments, the mice were brought into the procedural room. They were housed individually and allowed to acclimate for at least a half hour prior to testing. Although the studies were conducted during the light cycle (from 8:00 to 16:00 h), the procedure room was only sparsely lit (3 to 30 LUX) to provide better contrast for the video tracking. Local lighting was used for the injection procedures. During each trial, an individual mouse was placed in an open field arena (grey PVC cylinder with a height of 40 cm and a diameter of 22.5 cm). Each arena was placed on an infrared LED (8×8 LEDs)-lit box (white PVC squared box; 40×40 cm^2; height 12.5 cm). Each mouse was placed in the center of the arena and allowed to explore freely for 30 min. After each trial, the arena was cleaned with a wet and subsequently with a dry cleaning cloth. […] Animal behavior was recorded and analyzed using the Noldus Ethovision XT Video Tracking System (Version 3.1; Noldus, Wageningen, The Netherlands). The total distance traveled (cm) was calculated. […]
# Test compound or solvent was administered at a pre-defined time before measurement (standard: 30 min) to male NMRI mice that were challenged with phencyclidine (PCP; 5 mg/kg, s.c.) 30 min before measurement. Activity was measured for a period of 30 min.
# [1] = system: Adult male CF No 1 albino mice; assay: Minimal motor impairment (rotarod) in mice
# Procedure: (§1) Test compounds were administered using an optimal fluid volume to body fluid ratio. Test compounds were administered to mice in a volume of 0.01 ml/g of body weight (White, H. S., et al., General principles: Experimental selection, quantification, and evaluation of antiepileptic drugs, in Antiepileptic Drugs, Fourth Edition, R. H. Levy, R. H. Mattson, and B. S. Meldrum, Editors. 1995, Raven Press, Ltd.: New York. p. 99-110). The test compound number 6 was administered orally (p.o.). For each of the tests performed on the test compound, a 40% Hydroxypropyl-β-cyclodextrin (Hp-β-CD) stock solution was first prepared and utilized for formulating the test compound number 6 at the desired concentrations for testing via the oral (p.o.) route. Final compound concentrations were administered as suspensions in 20% Hp-β-CD. A 20% Hp-β-CD solution was used for the vehicle groups.
# (§2) Adult male CF No 1 albino mice (26-35 g) were obtained from Charles River, Portage, Mich. The animals were maintained on an adequate diet (Prolab RMH 3000) and allowed free access to food and water, except during the short time they were removed from their cage for testing. Animals newly received in the laboratory were allowed sufficient time to correct for possible food and water restriction incurred during transit before being employed in testing. All mice were housed in plastic cages in specially constructed rooms with controlled humidity, exchange of air and controlled lighting (12 hours on-12 hours off). The animals were housed, fed, and handled in a manner consistent with the recommendations in the National Council Publication, “Guide for the Care and Use of Laboratory animals.” Experimental Design General Methods Minimal Motor Impairment (MMI):
# Acute MMI was assessed by a combination of direct observations of the animal for overt symptoms of the animal's neurological or muscular function. In mice, the rotarod procedure was used to disclose minimal muscular or neurological impairment. When a mouse is placed on a rod that rotates at a speed of 6 rpm, the animal can maintain its equilibrium for long periods of time. The animal was considered toxic if it fell off this rotating rod three times during a 1 min period.
# [2] = system: Adult male CF No 1 albino mice; assay: 6 Hz psychomotor seizure test in mice; conditions: 10 mg/kg p.o.
# Procedure: as §1, §2
# Groups of four animals each were administered test compounds and each group was tested at one of five time points: 0.25, 0.5, 1, 2, or 4 h post-treatment (White et al. 1995). TPE was determined using the 6 Hz (32 mA) assay. The time (0.25, 0.5, 1, 2, or 4 h post-treatment) at which maximal protection was observed was considered the Time of Peak Effect (TPE). At the TPE determined for this study, or determined previously, compounds were tested in the 6 Hz assay (32 and/or 44 mA), across several doses and comprising doses that elicited little or no protection to full protection. […] Serum Collection for pK/pD Analysis: In various tests, animals were sacrificed following testing, and trunk blood and/or brain tissue (whole brains) was collected for quantification of drug levels. Immediately after testing, animals were decapitated and trunk blood was collected into a BD Vacutainer® tube containing K2EDTA and chilled on ice until centrifugation. […]
smiles,measurement,setting,value
"C[C@H](Oc1ccc(F)cc1F)c1ccn2c(CC3CC3)nnc2c1C(F)(F)F [Compound 6, 3-(Cyclopropylmethyl)-7-[(1S)-1-(2,4-difluorophenoxy)ethyl]-8-(trifluoromethyl)[1,2,4]triazolo[4,3-a]pyridine]",ED50,male NMRI mice,28.3 mg/kg
same,# rotarod motor impairment/# tested,"[1]; 10 mg/kg p.o., 0.25 h",0/4
same,# rotarod motor impairment/# tested,"[1]; 10 mg/kg p.o., 0.5 h",0/4
same,# rotarod motor impairment/# tested,"[1]; 10 mg/kg p.o., 1 h",0/4
same,# rotarod motor impairment/# tested,"[1]; 10 mg/kg p.o., 2 h",0/4
same,# rotarod motor impairment/# tested,"[1]; 10 mg/kg p.o., 4 h",0/4
same,# rotarod motor impairment/# tested,"[1]; 20 mg/kg p.o., 0.25 h",0/4
same,# rotarod motor impairment/# tested,"[1]; 20 mg/kg p.o., 0.5 h",0/4
same,# rotarod motor impairment/# tested,"[1]; 20 mg/kg p.o., 1 h",0/4
same,# rotarod motor impairment/# tested,"[1]; 20 mg/kg p.o., 2 h",0/4
same,# rotarod motor impairment/# tested,"[1]; 20 mg/kg p.o., 4 h",0/4
same,# rotarod motor impairment/# tested,"[1]; dose-response, 6 Hz 32 mA group, 2.5 mg/kg p.o., 0.5 h",0/8
same,# rotarod motor impairment/# tested,"[1]; dose-response, 6 Hz 32 mA group, 5 mg/kg p.o., 0.5 h",0/8
same,# rotarod motor impairment/# tested,"[1]; dose-response, 6 Hz 32 mA group, 10 mg/kg p.o., 0.5 h",0/8
same,# rotarod motor impairment/# tested,"[1]; dose-response, 6 Hz 32 mA group, 20 mg/kg p.o., 0.5 h",0/8
same,# rotarod motor impairment/# tested,"[1]; dose-response, 6 Hz 44 mA group, 10 mg/kg p.o., 0.5 h",0/8
same,# rotarod motor impairment/# tested,"[1]; dose-response, 6 Hz 44 mA group, 15 mg/kg p.o., 0.5 h",0/8
same,# rotarod motor impairment/# tested,"[1]; dose-response, 6 Hz 44 mA group, 20 mg/kg p.o., 0.5 h",0/8
same,# rotarod motor impairment/# tested,"[1]; dose-response, 6 Hz 44 mA group, 40 mg/kg p.o., 0.5 h",0/8
same,# protected/# tested,"[2]; 6 Hz 32 mA, 1 h",0/4
same,# protected/# tested,"[2]; 6 Hz 32 mA, 4 h",0/4
same,# protected/# tested,"[2]; dose-response, 6 Hz 32 mA, 0.5 h TPE",6/8
same,# protected/# tested,"[2]; dose-response, 6 Hz 44 mA, 0.5 h TPE",0/8

# Source: patent publication US9708315B2, “1,2,4-triazolo[4,3-a]pyridine compounds and their use as positive allosteric modulators of MGLUR2 receptors” (Janssen Pharmaceutica NV, priority 2013, dated 2017)
